In one series the target is T1, Fur (Escherichia coli, UniProt P0A9A9).
T1 construct: made in house
The series can be described thus: In vitro DNA-protein crosslinking assay (gel mobility shift), Fur. It is filed as biochemical. The note with it: Fur and DNA fragment bearing its recognition sequence. From the text: (§1) (Pried & Crothers, 1981; Garner & Revsin, 1981).
(§2) Proteins and DNA Probes. TFIIIA from Xenopus Borealis was provided by T. Tullius (Johns Hopkins University) and A. Wolffe (NIH). Fur was purified based on the method of Neilands and coworkers. MerR extract was obtained and quantified as described (O'Halloran, 1989). DNA probes used in TFIIIA, Fur, and MerR gel mobility shift assays were derived from plasmids pXBS201 (obtained from T. Tullius), pGMer and pBIB, respectively. The 249-bp BamHI-HindIII fragment from pXBS201, 309-bp XhoI-PvuII fragment from pBIB and 411-bp BssHII-BssHII fragment from pGMer are labeled with [α-^32 P]dNTPs (Amersham) by the Klenow fragment of DNA polymerase (Bethesda Research Laboratories). The labeled fragments are then isolated and purified by gel electrophoresis. DNA concentrations were determined by optical density at 260 nm by using a molar extinction coefficient of 1.3×10^4 per nucleotide pair.
(§3) Crosslinking Activity Assay. DNA-protein-crosslinker are incubated in 20 μl (final volume) of binding buffer. The buffer for TFIIIA and MerR extract reaction is 20 mM Hepes [pH 7.5], 50 mM K2 SO4, 10 μMZnsO4, 3 mM MgCl2, 10% glycerol and 70 μg/ml Albumin, Bovine-carboxymethyl [c-BSA] (Sigma). The Fur incubation buffer is 20 mM Bis-Tris/Borate [pH 7.0], 50 mM K2 SO4, 5% glycerol, 1 mM MgCl2, 5 μG/ml salmon sperm DNA and 100 μg/ml c-BSA. […]

In a further series the target is T2, MerR protein (Pseudomonas aeruginosa, UniProt P0A183).
T2 construct: made in house
The series is described as follows: In vitro DNA-protein crosslinking assay (gel mobility shift), MerR. It is filed as biochemical. The settings on record: MerR and DNA fragment bearing its recognition sequence. As to the method: FIGS. 8-11: In vitro assay for crosslinking of proteins to DNA by 5-Chloromercuri-1,2-pentanediamine)dichloro platinum(II). Lane 1:4.5 pM DNA, 500 cpm Lane 2: DNA+460 pM MerR dimer Lane 3: DNA+protein+2.4 nM unlabeled competitor DNA Lane 4: DNA+protein+25 mM KCN Lane 5:DNA-protein complex treated with 10 mM 1 prior to competition. Lane 6: DNA-protein complex treated with 2 mM 1 prior to competition. Lane 7: DNA-protein complex treated with 0.4 mM crosslinker prior to competition Lanes 8-10: Reactions as for lane 5-7, pretreated with 25 mM KCN prior to competition. (Grant)
as §1
Proteins and DNA Probes. TFIIIA from Xenopus Borealis was provided by T. Tullius (Johns Hopkins University) and A. Wolffe (NIH). Fur was purified based on the method of Neilands and coworkers. MerR extract was obtained and quantified as described (O'Halloran, 1989). DNA probes used in TFIIIA, Fur, and MerR gel mobility shift assays were derived from plasmids pXBS201 (obtained from T. Tullius), pGMer and pBIB, respectively. […] DNA concentrations were determined by optical density at 260 nm by using a molar extinction coefficient of 1.3×10^4 per nucleotide pair. […]

Another series concerns the target T3, TFIIIA (Xenopus borealis, UniProt P17842).
T3 sequence (P17842 1-339): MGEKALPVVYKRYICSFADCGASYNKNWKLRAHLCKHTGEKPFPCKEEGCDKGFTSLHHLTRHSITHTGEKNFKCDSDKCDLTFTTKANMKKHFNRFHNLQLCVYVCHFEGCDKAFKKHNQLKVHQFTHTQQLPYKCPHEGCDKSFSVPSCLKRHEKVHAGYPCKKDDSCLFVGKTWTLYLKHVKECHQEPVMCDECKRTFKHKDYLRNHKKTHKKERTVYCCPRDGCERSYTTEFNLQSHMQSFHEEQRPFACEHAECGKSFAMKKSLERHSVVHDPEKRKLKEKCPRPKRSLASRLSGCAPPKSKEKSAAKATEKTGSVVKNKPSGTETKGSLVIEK
The series is described as follows: In vitro DNA-protein crosslinking assay (gel mobility shift), TFIIIA. The note with it: zinc finger transcription factor TFIIIA and DNA fragment bearing its recognition sequence. It is filed as biochemical.
Description: as §1, §2, §3

The nature of another series: Stability at low pH. It is filed as physicochemical.
A short description of series [1]: Kinetics of the reaction of the complex with DMSO (UV spectroscopy). It is filed as physicochemical. The note with it: room temperature; in accord with published rate data for cis-Pt(NH3)2Cl2. As to the method:
^1 H, ^13 C, ^195 Pt and ^199 Hg NMR spectra were recorded on a Varian VXR-400 Fourier Transform spectrometer, operating at 399.95 MHZ (^1 H), […] (^13 C), 85.736 MHz (^195 Pt), and 71.600 MHz (^199 Hg). Standard acquisition parameter files were used for the accumulation of ^1 H and ^13 C spectra. For ^195 Pt NMR, a spectral window of 50 KHz was used, with a pulse width of 30 μsec, and a pulse delay of 100 μsec. Broadband proton decoupling was employed during acquisition of the spectra. ^195 Pt spectra were referenced externally using a 0.1M aqueous solution of K2 PtCl4 in 0.1M KCl. Chemical shifts are reported relative to K2 PtCl6 =0 ppm. (δK2 PtCl4 =[…]). Proton-decoupled ^199 Hg NMR spectra were recorded using a spectral window of 30 KHz, a pulse width of 30 μsec, and a pulse delay of 100 μsec. Chemical shifts are reported relative to external Hg(CH3)2 (0 ppm). Mass spectra were recorded using a VG instruments VG70-250 S/SE instrument. Infrared spectra were recorded using either a Perkin-Elmer PE-283 or a Mattson Alpha Centauri FTIR spectrometer. UV spectra were obtained using a Hewlett-Packard HP8452 spectrophotometer running off of an IBM-AT personal computer. Kinetic measurements were controlled using the Hewlett-Packard Multicell Kinetics Module. Data manipulation and plotting was performed using the program Igor^24 running on a Macintosh IIx personal computer. […]

The nature of series [2]: Solubility of the cross-linker complex in solvents. It is filed as physicochemical. From the text: The cross-linker species of the present invention has been characterized by a combination of analytical and spectroscopic techniques. […] The complex is quite soluble in DMSO, although a warning has been issued concerning the compositions of DMSO solutions of cisplatin derivatives (Sundquist, 1987). The proton NMR spectrum of the complex in d7-DMF is poorly resolved, and the resonances due to the residual protons in the deuterated solvent tend to obscure parts of the spectrum of the complex.
This appears to be an effect of particle size on dissolution rate, since no differences can be discerned in the infrared spectra of the complex before or after this treatment. In particular there is no evidence for coordinated DMSO in the region 1000-1200 cm-^1.

Series [3] relates to radiolabelled DNA fragment. The series can be described thus: DNA-binding assay: electrophoretic mobility shift of a radiolabelled DNA fragment on polyacrylamide gel. The note with it: for DNA mobility shift with increasing concentrations: polyacrylamide gel electrophoresis of radiolabelled DNA fragment. From the text: The assay used to determine the DNA-binding activity of the complexes is based on the assays developed by Lippard and coworkers for assaying the extent of DNA binding by cis-DDP, in which the electrophoretic mobility of a DNA molecule is altered by binding of the drug (Sundquist, 1990). Charge neutralization and DNA bending caused by binding of the divalent metal complex have been invoked to explain the observed mobility shift.
On the technique in general: A gel shift assay detects complexes by their altered migration in electrophoresis.

The conditions of series [4]: cited from earlier work.

“Also recorded” adds a separate entry of the source.

T1 sequence (P0A9A9 2-148): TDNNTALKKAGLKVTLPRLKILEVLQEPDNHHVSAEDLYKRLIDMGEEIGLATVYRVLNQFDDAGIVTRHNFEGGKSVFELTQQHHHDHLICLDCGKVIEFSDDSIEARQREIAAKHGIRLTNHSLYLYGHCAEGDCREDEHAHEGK
T2 sequence (P0A183 whole entry): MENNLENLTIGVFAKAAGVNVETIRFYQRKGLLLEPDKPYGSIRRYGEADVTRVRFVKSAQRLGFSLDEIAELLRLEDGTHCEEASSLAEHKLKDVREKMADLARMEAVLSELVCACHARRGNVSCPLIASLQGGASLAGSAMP

“5-Chloromercuri-1,2-pentanediamine)dichloro platinum(II) [Merplatin]”: the “induction of DNA-protein cross-links, Fur” value on Fur is recorded as “can efficiently induce DNA-protein cross-links”. For the same compound, the “induction of DNA-protein cross-links, MerR” value on MerR protein is reported as “can efficiently induce DNA-protein cross-links”. For the same compound, the “induction of DNA-protein cross-links, TFIIIA” value at TFIIIA was “can efficiently induce DNA-protein cross-links”. Besides, the “stability at low pH” value in “Stability at low pH” is reported as “stable at low pH”. The “half-life of reaction with DMSO” value in series [1] is listed as “approximately 3 hours”. For the same compound, in series [2] (DMSO), the “solubility in DMSO” value is “quite soluble”. For the same compound, the “solubility in NMP after reprecipitation” value in series [2] (NMP, after dissolution in DMSO and immediate precipitation with ethanol) is on record as “readily soluble”. For the same compound, the “solubility in amide solvents” value in series [2] (dimethylformamide or 1-methylpyrrolidinone (NMP), complex as prepared in Example 1) is recorded as “limited solubility; also recorded: dissolves sparingly”. For the same compound, the “concentration of solutions that can be prepared in amide solvents” value in series [2] (dimethylformamide or NMP, complex as prepared in Example 1) was ~ 10 mM. The “solubility in water and most organic solvents” value in series [2] (water and most organic solvents, listed as complex) was “limited solubility; also recorded: low solubility”. In series [3], the “binding to DNA” value is “bind avidly to DNA” and the “DNA mobility shift with increasing concentrations” value is “saturation binding curve which is identical in form with a curve obtained by incubation of DNA with PtenCl2”.
`[CH3][Hg][Cl]` [MeHgCl]: the “DNA mobility shift with increasing concentrations” value in series [3] is recorded as “does not exhibit a mobility shift at all”.
Still for that read-out and setting: next, `NCCN.[Cl][Pt][Cl]` [PtenCl2]: “saturation binding curve”.
With `N.N.[Cl][Pt][Cl]` [cisplatin, cis-dicholorodiammineplatinum(II), reference compound], at Fur, the “induction of DNA-protein cross-links, Fur” value is “only the latter reagent can efficiently induce DNA-protein cross-links”. Further, on MerR protein, the “induction of DNA-protein cross-links, MerR” value was “only the latter reagent can efficiently induce DNA-protein cross-links”. Further, at TFIIIA, the “induction of DNA-protein cross-links, TFIIIA” value is listed as “only the latter reagent can efficiently induce DNA-protein cross-links”. Also, in series [3], the “binding to DNA” value is listed as “bind avidly to DNA”.
On to `NCC1(CN)CCOCC1.O=C([O-])C1(C(=O)[O-])CCC1.[Pt+2]` [enloplatin], for which the “toxicity in phase I trials” value in series [4] is on record as “caused nephrotoxicity”.
For the compound `O=C([O-])C1(C(=O)[O-])CCC1.[NH-]CC(C[NH-])(CO)CO.[Pt+4]` [zeniplatin], the “toxicity in phase I trials” value in series [4] is given as “caused nephrotoxicity”.

These data come from patent publication US5534542A, “Methods and materials relating to a bi-metallic cross-linking species” (priority 1994, dated 1996).
